Data from the kinase profiling compilation of Christmann-Franck et al. (2016).

Key:
Experiment in all cases: radiometric filter-binding kinase assay, Kinase HotSpot
Conditions in all cases: compound 0.5 µM; ATP 10 µM
ACVR1 (human) = ACVR1 (human) (UniProt Q04771)
AKT1 (human) = AKT1 (human) (UniProt P31749)
AURKB (human) = AURKB (human) (UniProt Q96GD4)
CDC42BPB (human) = CDC42BPB (human) (UniProt Q9Y5S2)
CDK4 CCND1 (human) = CDK4 CCND1 (human) (UniProt P24385+P11802)
CDK4 CCND3 (human) = CDK4 CCND3 (human) (UniProt P30281+P11802)
CDK6 CCND1 (human) = CDK6 CCND1 (human) (UniProt Q00534+P24385)
CHEK2 (human) = CHEK2 (human) (UniProt O96017)
CLK3 (human) = CLK3 (human) (UniProt P49761)
CSNK1D (human) = CSNK1D (human) (UniProt P48730)
DAPK1 (human) = DAPK1 (human) (UniProt P53355)
DCLK2 (human) = DCLK2 (human) (UniProt Q8N568)
EPHA2 (human) = EPHA2 (human) (UniProt P29317)
EPHB3 (human) = EPHB3 (human) (UniProt P54753)
EPHB4 (human) = EPHB4 (human) (UniProt P54760)
ERBB2 (human) = ERBB2 (human) (UniProt P04626)
FER (human) = FER (human) (UniProt P16591)
FYN (human) = FYN (human) (UniProt P06241)
JAK3 JH1 JH2 (human) = JAK3 JH1 JH2 (human) (UniProt P52333)
KDR (human) = KDR (human) (UniProt P35968)
MAP3K14 (human) = MAP3K14 (human) (UniProt Q99558)
MAP3K5 (human) = MAP3K5 (human) (UniProt Q99683)
MAPK11 (human) = MAPK11 (human) (UniProt Q15759)
MAPK12 (human) = MAPK12 (human) (UniProt P53778)
MAPK14 (human) = MAPK14 (human) (UniProt Q16539)
MERTK (human) = MERTK (human) (UniProt Q12866)
MST1R (human) = MST1R (human) (UniProt Q04912)
NEK2 (human) = NEK2 (human) (UniProt P51955)
PAK4 (human) = PAK4 (human) (UniProt O96013)
PDGFRA (human) = PDGFRA (human) (UniProt P16234)
PHKG1 (human) = PHKG1 (human) (UniProt Q16816)
PIM1 (human) = PIM1 (human) (UniProt P11309)
PLK1 (human) = PLK1 (human) (UniProt P53350)
PRKCB1 (human) = PRKCB1 (human) (UniProt P05771)
RIPK2 (human) = RIPK2 (human) (UniProt O43353)
ROCK1 (human) = ROCK1 (human) (UniProt Q13464)
STK17A (human) = STK17A (human) (UniProt Q9UEE5)
TBK1 (human) = TBK1 (human) (UniProt Q9UHD2)
TEC (human) = TEC (human) (UniProt P42680)
TGFBR2 (human) = TGFBR2 (human) (UniProt P37173)
TXK (human) = TXK (human) (UniProt P42681)
[1] = target: TYK2 JH1 catalytic (human) (UniProt P29597)

MAP3K14 (human), sequence (Q99558 whole entry, looked up): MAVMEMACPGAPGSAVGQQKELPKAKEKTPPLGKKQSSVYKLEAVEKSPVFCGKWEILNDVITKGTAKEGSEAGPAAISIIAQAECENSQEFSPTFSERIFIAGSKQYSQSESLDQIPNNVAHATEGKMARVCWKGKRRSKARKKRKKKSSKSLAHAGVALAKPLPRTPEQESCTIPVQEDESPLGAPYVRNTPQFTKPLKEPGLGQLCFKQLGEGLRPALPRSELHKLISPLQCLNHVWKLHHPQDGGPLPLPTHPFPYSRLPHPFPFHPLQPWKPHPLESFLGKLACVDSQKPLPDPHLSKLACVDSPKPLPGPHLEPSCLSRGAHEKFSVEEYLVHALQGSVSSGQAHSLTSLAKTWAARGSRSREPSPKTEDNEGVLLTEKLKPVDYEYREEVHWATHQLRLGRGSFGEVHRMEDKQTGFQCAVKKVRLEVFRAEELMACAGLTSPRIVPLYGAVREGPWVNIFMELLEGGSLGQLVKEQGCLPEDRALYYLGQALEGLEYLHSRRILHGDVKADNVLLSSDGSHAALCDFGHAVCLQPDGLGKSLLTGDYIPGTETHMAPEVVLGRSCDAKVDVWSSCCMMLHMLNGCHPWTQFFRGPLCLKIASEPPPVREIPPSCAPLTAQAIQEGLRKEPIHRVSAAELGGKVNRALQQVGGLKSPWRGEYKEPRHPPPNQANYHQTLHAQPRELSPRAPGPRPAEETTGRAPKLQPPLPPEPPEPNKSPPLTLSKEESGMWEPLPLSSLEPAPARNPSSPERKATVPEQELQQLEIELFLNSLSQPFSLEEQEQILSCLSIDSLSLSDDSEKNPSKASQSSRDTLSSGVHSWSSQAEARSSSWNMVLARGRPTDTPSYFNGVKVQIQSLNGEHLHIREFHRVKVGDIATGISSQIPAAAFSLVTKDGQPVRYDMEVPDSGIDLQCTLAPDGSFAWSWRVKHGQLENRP
DCLK2 (human), sequence (Q8N568 whole entry, looked up): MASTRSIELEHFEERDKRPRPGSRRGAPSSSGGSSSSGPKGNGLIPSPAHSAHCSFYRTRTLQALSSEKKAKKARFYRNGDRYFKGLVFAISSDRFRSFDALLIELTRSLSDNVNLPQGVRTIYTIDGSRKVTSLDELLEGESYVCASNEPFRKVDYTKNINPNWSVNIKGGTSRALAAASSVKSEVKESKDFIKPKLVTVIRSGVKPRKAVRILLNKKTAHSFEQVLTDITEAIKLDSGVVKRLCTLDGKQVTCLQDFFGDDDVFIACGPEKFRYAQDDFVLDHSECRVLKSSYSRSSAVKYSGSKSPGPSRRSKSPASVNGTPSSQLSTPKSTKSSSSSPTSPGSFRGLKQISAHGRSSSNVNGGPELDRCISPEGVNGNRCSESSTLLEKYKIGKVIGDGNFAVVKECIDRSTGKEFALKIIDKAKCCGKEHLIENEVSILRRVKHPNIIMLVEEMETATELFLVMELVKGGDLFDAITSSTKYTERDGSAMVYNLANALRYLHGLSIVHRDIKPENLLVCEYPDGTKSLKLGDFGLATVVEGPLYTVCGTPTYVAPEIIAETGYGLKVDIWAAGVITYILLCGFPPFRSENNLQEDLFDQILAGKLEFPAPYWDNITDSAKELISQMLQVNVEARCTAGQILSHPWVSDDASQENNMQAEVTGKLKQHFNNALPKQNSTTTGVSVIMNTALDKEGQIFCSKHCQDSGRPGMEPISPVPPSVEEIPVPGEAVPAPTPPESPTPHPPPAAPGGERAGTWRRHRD
FYN (human), sequence (P06241 whole entry, looked up): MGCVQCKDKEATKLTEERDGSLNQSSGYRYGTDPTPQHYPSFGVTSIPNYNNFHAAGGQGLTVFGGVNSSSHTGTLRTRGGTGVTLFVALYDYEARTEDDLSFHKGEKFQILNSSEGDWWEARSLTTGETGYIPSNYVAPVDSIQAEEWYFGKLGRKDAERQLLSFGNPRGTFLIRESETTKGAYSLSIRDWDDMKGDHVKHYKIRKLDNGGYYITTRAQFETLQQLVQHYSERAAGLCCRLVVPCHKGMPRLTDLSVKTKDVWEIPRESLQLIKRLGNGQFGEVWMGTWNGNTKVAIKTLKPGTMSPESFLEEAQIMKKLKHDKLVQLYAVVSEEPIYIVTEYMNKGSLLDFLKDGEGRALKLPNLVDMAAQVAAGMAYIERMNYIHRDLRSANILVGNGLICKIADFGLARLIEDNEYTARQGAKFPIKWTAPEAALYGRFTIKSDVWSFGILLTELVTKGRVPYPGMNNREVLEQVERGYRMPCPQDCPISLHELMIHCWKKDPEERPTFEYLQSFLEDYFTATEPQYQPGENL
PIM1 (human), sequence (P11309 whole entry, looked up): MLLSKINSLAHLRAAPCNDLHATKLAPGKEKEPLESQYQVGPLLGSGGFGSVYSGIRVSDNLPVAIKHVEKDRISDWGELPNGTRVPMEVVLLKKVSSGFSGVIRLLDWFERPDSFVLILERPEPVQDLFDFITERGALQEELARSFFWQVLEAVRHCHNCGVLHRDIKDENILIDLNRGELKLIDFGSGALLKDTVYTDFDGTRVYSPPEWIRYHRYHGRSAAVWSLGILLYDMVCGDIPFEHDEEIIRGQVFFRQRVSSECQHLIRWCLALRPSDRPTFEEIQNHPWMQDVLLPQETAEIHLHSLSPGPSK
EPHA2 (human), sequence (P29317 whole entry, looked up): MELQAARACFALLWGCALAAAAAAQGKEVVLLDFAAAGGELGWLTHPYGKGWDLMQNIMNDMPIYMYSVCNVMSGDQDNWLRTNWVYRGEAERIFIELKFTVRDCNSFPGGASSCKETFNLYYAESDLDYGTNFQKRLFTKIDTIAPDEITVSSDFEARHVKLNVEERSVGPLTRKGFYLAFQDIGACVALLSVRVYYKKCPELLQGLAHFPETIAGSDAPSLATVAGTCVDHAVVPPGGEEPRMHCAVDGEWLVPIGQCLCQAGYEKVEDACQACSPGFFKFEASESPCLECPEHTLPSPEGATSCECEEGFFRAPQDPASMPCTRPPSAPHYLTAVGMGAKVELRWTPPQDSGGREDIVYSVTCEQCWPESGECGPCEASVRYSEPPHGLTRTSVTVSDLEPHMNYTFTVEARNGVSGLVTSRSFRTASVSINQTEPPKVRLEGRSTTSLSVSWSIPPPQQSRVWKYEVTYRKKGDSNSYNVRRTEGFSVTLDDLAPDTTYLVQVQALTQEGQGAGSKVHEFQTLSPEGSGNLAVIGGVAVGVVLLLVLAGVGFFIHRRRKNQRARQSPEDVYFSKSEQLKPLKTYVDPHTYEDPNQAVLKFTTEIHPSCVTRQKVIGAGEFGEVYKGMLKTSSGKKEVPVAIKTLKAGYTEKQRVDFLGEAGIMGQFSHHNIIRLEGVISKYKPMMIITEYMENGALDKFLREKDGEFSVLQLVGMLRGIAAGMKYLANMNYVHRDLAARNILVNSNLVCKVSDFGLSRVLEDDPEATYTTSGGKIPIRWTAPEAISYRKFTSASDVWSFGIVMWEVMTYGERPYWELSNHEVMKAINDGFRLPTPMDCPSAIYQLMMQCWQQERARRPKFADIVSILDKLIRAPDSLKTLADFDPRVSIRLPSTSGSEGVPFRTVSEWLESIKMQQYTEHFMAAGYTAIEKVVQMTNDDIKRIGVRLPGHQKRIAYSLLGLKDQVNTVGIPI
PAK4 (human), sequence (O96013 whole entry, looked up): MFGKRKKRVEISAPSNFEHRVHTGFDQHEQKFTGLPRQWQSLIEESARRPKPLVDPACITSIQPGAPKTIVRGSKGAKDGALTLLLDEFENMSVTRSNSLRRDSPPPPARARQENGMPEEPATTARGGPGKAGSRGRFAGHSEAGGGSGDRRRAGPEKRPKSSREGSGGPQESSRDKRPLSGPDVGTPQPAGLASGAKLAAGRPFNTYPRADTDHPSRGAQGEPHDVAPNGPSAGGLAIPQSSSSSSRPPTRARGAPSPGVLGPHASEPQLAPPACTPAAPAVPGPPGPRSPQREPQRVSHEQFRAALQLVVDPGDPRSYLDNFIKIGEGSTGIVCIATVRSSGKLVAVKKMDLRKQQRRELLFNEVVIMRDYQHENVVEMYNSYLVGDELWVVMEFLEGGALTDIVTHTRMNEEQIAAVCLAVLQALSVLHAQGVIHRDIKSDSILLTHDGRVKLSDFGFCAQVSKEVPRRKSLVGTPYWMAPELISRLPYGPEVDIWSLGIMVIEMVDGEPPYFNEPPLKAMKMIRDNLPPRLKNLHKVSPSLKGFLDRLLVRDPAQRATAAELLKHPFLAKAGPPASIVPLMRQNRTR
FER (human), sequence (P16591 whole entry, looked up): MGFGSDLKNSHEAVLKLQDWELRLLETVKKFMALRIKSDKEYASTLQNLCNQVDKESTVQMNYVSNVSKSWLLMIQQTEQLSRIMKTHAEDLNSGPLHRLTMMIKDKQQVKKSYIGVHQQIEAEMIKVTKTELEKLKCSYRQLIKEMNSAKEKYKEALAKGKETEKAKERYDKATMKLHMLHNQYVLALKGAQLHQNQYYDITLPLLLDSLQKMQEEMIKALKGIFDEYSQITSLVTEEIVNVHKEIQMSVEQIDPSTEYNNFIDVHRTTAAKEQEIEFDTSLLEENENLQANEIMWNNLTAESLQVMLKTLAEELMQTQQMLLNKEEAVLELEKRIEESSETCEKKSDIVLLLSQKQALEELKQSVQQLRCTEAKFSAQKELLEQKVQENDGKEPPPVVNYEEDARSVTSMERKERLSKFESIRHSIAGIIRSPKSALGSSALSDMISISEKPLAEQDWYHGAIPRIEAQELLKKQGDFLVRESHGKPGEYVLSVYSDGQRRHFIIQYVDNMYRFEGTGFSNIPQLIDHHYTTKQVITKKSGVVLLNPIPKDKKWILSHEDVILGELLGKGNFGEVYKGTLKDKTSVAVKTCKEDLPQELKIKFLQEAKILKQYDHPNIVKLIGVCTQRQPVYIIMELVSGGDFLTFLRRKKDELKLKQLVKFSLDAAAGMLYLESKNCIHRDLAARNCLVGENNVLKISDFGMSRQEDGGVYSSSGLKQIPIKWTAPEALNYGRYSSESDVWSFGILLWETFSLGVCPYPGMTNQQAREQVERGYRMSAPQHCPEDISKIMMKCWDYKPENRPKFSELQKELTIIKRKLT

COc1cc2nccc(Oc3ccc(NC(=S)NC(=O)c4ccccc4C)cc3)c2cc1OC
residual activity (ACVR1 (human)): 93.5% | residual activity (AKT1 (human)): 95.7% | residual activity (AURKB (human)): 4.31% | residual activity (CDC42BPB (human)): 90.5% | residual activity (CDK4 CCND1 (human)): 95.1% | residual activity (CDK4 CCND3 (human)): 93.4% | residual activity (CDK6 CCND1 (human)): 87.1% | residual activity (CHEK2 (human)): 67% | residual activity (CLK3 (human)): 93.2% | residual activity (CSNK1D (human)): 212% | residual activity (DAPK1 (human)): 101% | residual activity (DCLK2 (human)): 91.5% | residual activity (EPHA2 (human)): 86.9% | residual activity (EPHB3 (human)): 95.7% | residual activity (EPHB4 (human)): 103% | residual activity (ERBB2 (human)): 102% | residual activity (FER (human)): 58.2% | residual activity (FYN (human)): 77.4% | residual activity (JAK3 JH1 JH2 (human)): 96.6% | residual activity (KDR (human)): 74.1% | residual activity (MAP3K14 (human)): 106% | residual activity (MAP3K5 (human)): 106% | residual activity (MAPK11 (human)): 89.3% | residual activity (MAPK12 (human)): 96.8% | residual activity (MAPK14 (human)): 80.2% | residual activity (MERTK (human)): 32.3% | residual activity (MST1R (human)): 88.8% | residual activity (NEK2 (human)): 89% | residual activity (PAK4 (human)): 100% | residual activity (PDGFRA (human)): 12.5% | residual activity (PHKG1 (human)): 89.2% | residual activity (PIM1 (human)): 97.6% | residual activity (PLK1 (human)): 97.9% | residual activity (PRKCB1 (human)): 91.9% | residual activity (RIPK2 (human)): 89.2% | residual activity (ROCK1 (human)): 90.5% | residual activity (STK17A (human)): 82.3% | residual activity (TBK1 (human)): 103% | residual activity (TEC (human)): 90.8% | residual activity (TGFBR2 (human)): 96.7% | residual activity (TXK (human)): 66.9% | residual activity [1]: 88.5%

CC(C)[C@H](CO)Nc1nc(Nc2cccc(Cl)c2)c2ncn(C(C)C)c2n1
residual activity (ACVR1 (human)): 92.6% | residual activity (AKT1 (human)): 102% | residual activity (AURKB (human)): 97% | residual activity (CDC42BPB (human)): 108% | residual activity (CDK4 CCND1 (human)): 83.4% | residual activity (CDK4 CCND3 (human)): 88.3% | residual activity (CDK6 CCND1 (human)): 67.5% | residual activity (CHEK2 (human)): 88.1% | residual activity (CLK3 (human)): 89.7% | residual activity (CSNK1D (human)): 92.2% | residual activity (DAPK1 (human)): 99.7% | residual activity (DCLK2 (human)): 100% | residual activity (EPHA2 (human)): 89.5% | residual activity (EPHB3 (human)): 102% | residual activity (EPHB4 (human)): 71.7% | residual activity (ERBB2 (human)): 97.1% | residual activity (FER (human)): 62.9% | residual activity (FYN (human)): 48.9% | residual activity (JAK3 JH1 JH2 (human)): 92.5% | residual activity (KDR (human)): 95% | residual activity (MAP3K14 (human)): 112% | residual activity (MAP3K5 (human)): 108% | residual activity (MAPK11 (human)): 109% | residual activity (MAPK12 (human)): 106% | residual activity (MAPK14 (human)): 99.4% | residual activity (MERTK (human)): 84.7% | residual activity (MST1R (human)): 90.6% | residual activity (NEK2 (human)): 102% | residual activity (PAK4 (human)): 99.5% | residual activity (PDGFRA (human)): 96.9% | residual activity (PHKG1 (human)): 89.9% | residual activity (PIM1 (human)): 104% | residual activity (PLK1 (human)): 89.2% | residual activity (PRKCB1 (human)): 102% | residual activity (RIPK2 (human)): 88.1% | residual activity (ROCK1 (human)): 100% | residual activity (STK17A (human)): 95% | residual activity (TBK1 (human)): 93% | residual activity (TEC (human)): 127% | residual activity (TGFBR2 (human)): 98.1% | residual activity (TXK (human)): 54.1% | residual activity [1]: 95.2%

Oc1ccc(-c2nc(-c3ccc(F)cc3)c(-c3ccncc3)[nH]2)cc1
residual activity (ACVR1 (human)): 106% | residual activity (AKT1 (human)): 101% | residual activity (AURKB (human)): 104% | residual activity (CDC42BPB (human)): 103% | residual activity (CDK4 CCND1 (human)): 105% | residual activity (CDK4 CCND3 (human)): 104% | residual activity (CDK6 CCND1 (human)): 97.6% | residual activity (CHEK2 (human)): 98.9% | residual activity (CLK3 (human)): 101% | residual activity (CSNK1D (human)): 16.8% | residual activity (DAPK1 (human)): 95% | residual activity (DCLK2 (human)): 102% | residual activity (EPHA2 (human)): 91.3% | residual activity (EPHB3 (human)): 97.7% | residual activity (EPHB4 (human)): 89% | residual activity (ERBB2 (human)): 95.5% | residual activity (FER (human)): 94.5% | residual activity (FYN (human)): 87.5% | residual activity (JAK3 JH1 JH2 (human)): 95.8% | residual activity (KDR (human)): 99.9% | residual activity (MAP3K14 (human)): 115% | residual activity (MAP3K5 (human)): 105% | residual activity (MAPK11 (human)): 32.8% | residual activity (MAPK12 (human)): 102% | residual activity (MAPK14 (human)): 7.42% | residual activity (MERTK (human)): 85.2% | residual activity (MST1R (human)): 102% | residual activity (NEK2 (human)): 101% | residual activity (PAK4 (human)): 98.6% | residual activity (PDGFRA (human)): 98.8% | residual activity (PHKG1 (human)): 94.2% | residual activity (PIM1 (human)): 106% | residual activity (PLK1 (human)): 100% | residual activity (PRKCB1 (human)): 63.7% | residual activity (RIPK2 (human)): 46.8% | residual activity (ROCK1 (human)): 101% | residual activity (STK17A (human)): 101% | residual activity (TBK1 (human)): 95.2% | residual activity (TEC (human)): 106% | residual activity (TGFBR2 (human)): 127% | residual activity (TXK (human)): 78.5% | residual activity [1]: 106%
